Data taken from patent US20120329721A1, “MEANS FOR PREVENTING AND TREATING CELLULAR DEATH AND THEIR BIOLOGICAL APPLICATIONS” (CHIESI FARMACEUTICI S.P.A., priority 2003, published 2012).
Entries after “also recorded” stand apart in the source; their conditions may differ. Like-named read-outs stand apart in the source and are kept apart here. Residues, ends and D or L forms follow the SMILES beside them. *: point of attachment. Cbz = O=C(OCc1ccccc1)*; d = 2'-deoxy (DNA); r = 2'-OH (RNA); CH2F = FC*

Key:
[1] = system: neonatal ischemic brain injury in 7 day-old rats; conditions: cited from earlier work
[2] = molecular target: T1, human recombinant caspase-2 (Homo sapiens, UniProt P42575); assay: In vitro VDVAD-AMC cleavage by recombinant caspase-2; type: biochemical
T1 construct: purchased BIOMOL
T1 sequence (P42575 170-325 limits assumed): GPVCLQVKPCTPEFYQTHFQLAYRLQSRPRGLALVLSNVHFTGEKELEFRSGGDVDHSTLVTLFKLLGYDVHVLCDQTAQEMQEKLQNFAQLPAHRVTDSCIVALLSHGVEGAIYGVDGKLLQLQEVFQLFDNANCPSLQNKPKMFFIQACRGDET
T1 sequence (P42575 348-452 limits assumed): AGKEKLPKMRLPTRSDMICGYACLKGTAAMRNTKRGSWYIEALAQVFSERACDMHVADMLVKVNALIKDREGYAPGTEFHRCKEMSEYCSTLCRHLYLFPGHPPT
Description: Activity of human recombinant caspase-2 (BIOMOL QuantiZyme™ Assay System) was assessed in 100 μl assay buffer (50 mM HEPES, pH 7.4, 100 mM NaCl, 0.1% CHAPS, 10 mM DTT, 1 mM EDTA, 10% glycerol).

primary cortical neurons [3] = type: cell-based; conditions: for ΔΨm loss (drop) in SD-neurons: JC-1
primary cortical neurons [4] = assay: Cortical neuron death induced by other stimuli (ionomycin, staurosporine, β-amyloid 25-35, MPTP, 3-NPA, SNP); type: cell-based, mouse
[5] = system: neonatal ischemic brain injury in 7 day-old rats; conditions: rat, in vivo, ip
caspase-3 = assay: In cellula caspase-3 like activity (FAM-DEVD-FMK FLICA or anti-cleaved caspase-3 antibody) in SD-neurons; type: cell-based, mouse
cytochrome c = assay: Immunodetection of cytochrome c release in SD-neurons; type: cell-based, mouse
Bax = Bax translocation to mitochondria in SD-neurons (Δ21 antibody immunostaining, subcellular fractionation); type: cell-based, mouse
caspase-8 = assay: In cellula caspase-8 like activity (FAM-LETD-FMK FLICA) in SD-neurons; type: cell-based, mouse
Jurkat cells = assay: VP16-induced cell death of Jurkat cells, cytoprotection assay; type: cell-based, human
caspase-9 = assay: In cellula caspase-9 like activity (FAM-LEHD-FMK FLICA) in SD-neurons; type: cell-based, mouse
Description: Neurons were incubated with 1/150 of the DMSO stock solution of the FLICA for 1 hr at 37° C. 7-AAD and Hoechst were added during the last 15 min. Then neurons were washed three times in washing buffer (CaspaTag™ Kit). […] Cleaved caspase-3 was evidenced in cellula by immunodetection using Phycoerythrin (PE)-conjugated polyclonal antibodies (Beckton Dickinson). Neurons were stained by 7-AAD, trypsinized and fixed in PBS containing 1% PFA and 20 μg/ml Actinomycin D (AD) for 20 min. […] After washings in PBS, PE-related fluorescence was analysed on the cytometer (Fl-2 channel). Z-val-Ala-Asp(OMe)-FMK (Z-VAD-FMK), Quinoline-Val-Asp (OMe)-CH2-O-Ph (Q-VD-OPH), Z-DEVD-FMK ([…], ICN) and Z-LEHD-FMK ([…], all purchased from ICN (Orsay, France), and 4-(2-Aminoethyl)benzenesulfonyl fluoride (AEBSF, Pefabloc SC, Roche, Meylan, France) were added at 100 μM at the initiation of serum deprivation. Sulforhodamine-DEVD-FMK, (CaspaTag™ Red Activity Kit) permitted to detect activated caspase-3 and FITC-Annexin V. Neurons were incubated with 1/900 of the DMSO stock solution of the FLICA, and 1× FITC-annexin V in 200 μl of annexin-buffer for 30 min at 37° C. Then neurons were washed three times in a buffer composed of 50% washing buffer and 50% annexin-buffer. […] For FM, FLICA was excited through the BP515-560 filter and its fluorescence was collected through the LP590 long pass emission filter.
Neurons were loaded with 1 μM JC-1 for 30 min at 37° C. […] JC-1 monomers were detected in the Fl-1 channel by FC. […] Activated caspase-2, -3, -8 and -9 were detected using specific FAM-conjugated peptides (called Fluorochrome Labeled Inhibitor of Caspase, FLICA: CaspaTag™ fluorescein Caspase Activity Kits, Q-Biogen, Illkirch, France; ApoFluor™ Caspase Detection Kits, ICN, Orsay, France): FAM-VDVAD-FMK, FAM-DEVD-FMK, FAM-LETD-FMK and FAM-LEHD-FMK, respectively. Neurons were incubated with FLICAs (1:150, CaspaTag™ or 1:500, ApoFluor™) for 1 hr at 37° C., then washed three times in washing buffer. […] Phosphatidylserine (PS) exposure to the outer leaflet of the plasma membrane was detected through the fixation of FITC conjugated-annexin V (Immunotech).

caspase-2 [6] = assay: In cellula caspase-2 like activity (FAM-VDVAD-FMK FLICA; Western blotting) in SD-neurons; type: cell-based, mouse
caspase-2 [7] = assay: Caspase-2 activation (FLICA) in VP16-treated Jurkat cells; type: cell-based, human; conditions: VP16 10 μM, 7 hrs; inhibitors 50 μM
Bax α = assay: Bax cleavage (p22 to p18) in SD-neurons by Western blotting; type: cell-based, mouse; conditions: 24 hr-SD, Western Blotting Δ21 antibody; VDVAD/QVDOPH 100 μM, ALLN/ALLM 25 μM, E64d 25-50 μM, lactacystin 1-10 μM, epoxomycin 10 μM
Description: Neurons were lysed at RT in 25 mM Tris-HCl pH 7.4, 25 mM NaCl, 5 mM EDTA, 1% Triton X-100 supplemented by complete protease inhibitors cocktail (Roche). Protein concentration was determined using the Bio-Rad protein assay kit. Proteins (30 μg for caspase-2; 10 μg for Bax) were separated on 12.5% polyacrylamide gels and transferred to PVDF membranes (Amersham). […] The monoclonal anti-mouse caspase-2antibody (11B4, Alexis Biochemicals) was used at a 1:1000 dilution; polyclonal antibody (Δ21, Santa Cruz Biotechnology) raised against mouse Bax α deleted for the carboxy terminal 21 amino acids was used at a 1:200 dilution; polyclonal antibody (N20, Santa Cruz Biotechnology) raised against the amino terminus of Bax α (recognizing residues 11 to 30) was used at a 1:1000 dilution. Actin (42 kDa; Sigma; 1:5000) is used as an equal loading control. Immunoblotting of heat-shock protein 60 (HSP60) with a mouse monoclonal anti-HSP (Sigma; 1:400) was used to check the purity of the heavy membrane fraction enriched in mitochondria.

murine caspase-2 = assay: Caspase-2 knock-down by siRNA in cortical neurons (RT-PCR, Western blotting, 10C6 immunostaining); type: cell-based, mouse; conditions: in situ antibody-based detection
VDVAD-AMC = molecular target: T2, VDVAD-AMC
T2 chain: VDVAD

[8] = inhibitor 2 μM, 50 μM VDVAD-AMC, caspase-2 125 U, 30 min at 37° C.
[9] = 24 hr-SD, inhibitors 100 μM (BA 25 μM)
[10] = 24 hr-SD, inhibitors 100 μM (BA 25 μM), listed as LEHD
[11] = 24 hr-SD, inhibitors 100 μM (BA 25 μM), listed as z-LEHD-fmk

COC(=O)CC(NC(=O)OC(C)(C)C)C(=O)CF [BOC-D-FMK, BOC-Asp(OMe)-fluoromethylketone]
animals with aggravation ([1]; Renolleau's model): 60% | reduction in infarct volume (previous results in this model) ([1]; previous results obtained in this model): did not induce such a significant reduction in infarct volume | inhibition of VDVAD-AMC cleavage by recombinant caspase-2 [2, 8]: completely inactive | survival / protection of SD-neurons against cell death (apoptosis hallmarks overall) (primary cortical neurons [3]): neither Z-VAD-FMK nor BOC-D-FMK (BOC-D) is able to delay or to abrogate; also recorded: inefficient | Survival (primary cortical neurons [3]; SD model, compound added at the start of SD at the concentration of column '[ ], μM' (first concentration/target where two are printed)): No

COC(=O)CC(NC(=O)C(NC(=O)c1ccc2ccccc2n1)C(C)C)C(=O)COc1ccccc1 (stereo not shown) [Q-VD-OPH, Quinoline-Val-Asp (OMe)-CH2-O-Ph]
cell death induced by staurosporine or ionomycin (primary cortical neurons [4]): is not prevented | protection from NA and PMP induced by β-amyloid (25-35), MPTP, 3-NPA, SNP or ionomycin (primary cortical neurons [4]): fails to provide protection, except for β-amyloid; also recorded: fail to prevent significantly | animals that exhibited no infarct [5]: 4 | infarct volume (% damage in the lesioned ipsilateral hemisphere) [5]: 12.4±2.6% | mortality rate during ischemia or before killing [5]: < 4% | reduction in infarct volume [5]: 44% | inhibition of VDVAD-AMC cleavage by recombinant caspase-2 [2]: blocked | caspase-3 like activity / activation in SD-neurons (caspase-3): strongly prevent; also recorded: completely inactivated; also recorded: prevent downstream cytochrome c release-dependent activation | inhibition of caspase-3 like activity induced by serum deprivation (caspase-3; 100 µM): 95.3 +/- 5.6% | cytochrome c release from mitochondria in SD-neurons (cytochrome c): efficiently blocked | Bax translocation (relocation) to mitochondria in SD-neurons (Bax): impair Bax translocation to mitochondria; also recorded: prevented | Survival (primary cortical neurons [3]): Yes | concentration required for optimal survival / higher protective effect (primary cortical neurons [3]): 100 µM | degradation phase of apoptosis: PS exposure, nuclear apoptosis (NA), PMP in SD-neurons (primary cortical neurons [3]): strongly prevent; also recorded: fully blocked | inhibition of PMP (7-AAD) induced by serum deprivation (primary cortical neurons [3]): 93.9+/−3.8% | survival / protection of SD-neurons against cell death (apoptosis hallmarks overall) (primary cortical neurons [3]): mostly rescued; also recorded: highly preserves both nuclear morphology and neurites integrity | caspase-8 like activity in SD-neurons (caspase-8): completely inactivated | cell death induced by VP16 (survival) (Jurkat cells): prevents cell death | terminal nuclear alterations and PMP in VP16-treated Jurkat cells (Jurkat cells): mostly prevent | caspase-9 like activity / activation in SD-neurons (caspase-9): completely inactivated; also recorded: prevent downstream cytochrome c release-dependent activation | caspase-2 like activity / activation in SD-neurons (caspase-2 [6]): completely inactivated; also recorded: abolish caspase-2 activation

COC(=O)CCC(NC(=O)C(CC(C)C)NC(=O)OCc1ccccc1)C(=O)NC(Cc1cnc[nH]1)C(=O)NC(CC(=O)OC)C(=O)CF (stereo not shown) [Z-LEHD-FMK, N-benzyloxycarbonyl-Leu-Glu(Ome)-His-Asp(OMe)-fluoromethylketone] (Cbz-LE(OMe)HD(OMe)-CH2F; configuration not given here)
inhibition of VDVAD-AMC cleavage by recombinant caspase-2 [2, 8]: did not interfere highly; also recorded: not strongly inactivated | cytochrome c release from mitochondria in SD-neurons (cytochrome c; 24 hr-SD, inhibitors 100 μM): could not prevent cytochrome c release | cytochrome c release from mitochondria in SD-neurons (cytochrome c; 24 hr-SD, inhibitors 100 μM, listed as LEHD): fail to impair cytochrome c release | caspase-2 activation in VP16-treated Jurkat cells (caspase-2 [7]): do not impair caspase-2 activation | Bax translocation (relocation) to mitochondria in SD-neurons (Bax; 24 hr-SD, inhibitors 100 μM (furosemide 2 mM)): does not prevent mitochondrial Bax relocation | Bax translocation (relocation) to mitochondria in SD-neurons (Bax; 24 hr-SD, inhibitors 100 μM (furosemide 2 mM), listed as LEHD): fail to impair Bax relocation | ΔΨm loss (drop) in SD-neurons (primary cortical neurons [3]; [9]): does not impair; also recorded: does not impaired ΔΨm drop | ΔΨm loss (drop) in SD-neurons (primary cortical neurons [3]; [10]): does not impair ΔΨm drop | degradation phase of apoptosis: PS exposure, nuclear apoptosis (NA), PMP in SD-neurons (primary cortical neurons [3]; [9]): delays and prevents apoptotic bodies formation but not stage I-condensation; also recorded: prevents | degradation phase of apoptosis: PS exposure, nuclear apoptosis (NA), PMP in SD-neurons (primary cortical neurons [3]; [10]): preventing PS exposure, NA and PMP | degradation phase of apoptosis: PS exposure, nuclear apoptosis (NA), PMP in SD-neurons (primary cortical neurons [3]; [11]): abolishes PS exposure and PMP | ΔΨm loss in VP16-treated Jurkat cells (Jurkat cells; VP16 10 μM, 7-8 hrs, inhibitors 50 μM): not abolished | caspase-9 like activity / activation in SD-neurons (caspase-9; [9]): prevents caspase-9 activation | caspase-9 like activity / activation in SD-neurons (caspase-9; [11]): abolition of caspase-9 like activity

siRNA C2 m: irrelevant control siRNA with 4 mutations, duplex of SEQ ID No 3 and SEQ ID No 4 (chain 1 CAUCUACUCGAGACGGACATT; chain 2 UGUCCGUCUCGAGUAGAUGTT; sugars from the 5' end r19 d2, backbone not given here)
Bax cleavage (p18 Bax) in SD-neurons (Bax α): has no effect | caspase-2 expression (gene silencing / knock-down) (murine caspase-2): prevents neither gene/protein expression

B1: human recombinant caspase-2 (BIOMOL QuantiZyme Assay System) (protein)
chain: GPVCLQVKPCTPEFYQTHFQLAYRLQSRPRGLALVLSNVHFTGEKELEFRSGGDVDHSTLVTLFKLLGYDVHVLCDQTAQEMQEKLQNFAQLPAHRVTDSCIVALLSHGVEGAIYGVDGKLLQLQEVFQLFDNANCPSLQNKPKMFFIQACRGDETDRGVDQQDGKNHAGSPGCEESDAGKEKLPKMRLPTRSDMICGYACLKGTAAMRNTKRGSWYIEALAQVFSERACDMHVADMLVKVNALIKDREGYAPGTEFHRCKEMSEYCSTLCRHLYLFPGHPPT
cleavage of VDVAD-AMC (fluorescence emission at 510 nm upon excitation at 405 nm) (VDVAD-AMC): The cleavage of 50 µM VDVAD-AMC by recombinant caspase-2 (125 U) was measured after 30 min at 37 °C
